Test results taken from BigSolDB 2.1.

CCOc1ccc(OCC)cc1
solubility (mole fraction)
Conditions | 278.15 K | 283.15 K | 288.15 K | 293.15 K | 298.15 K | 303.15 K | 308.15 K | 313.15 K | 318.15 K
in 2-butanone | 0.077 | 0.0958 | 0.113 | 0.136 | 0.169 | 0.204 | 0.257 | 0.31 | 0.406
in acetone | 0.0531 | 0.0679 | 0.0839 | 0.0969 | 0.12 | 0.158 | 0.204 | 0.263 | 0.341
in acetonitrile | 0.0204 | 0.0265 | 0.0372 | 0.0498 | 0.0672 | 0.102 | 0.141 | 0.251 | 0.473
in dimethyl carbonate | 0.0243 | 0.0339 | 0.0537 | 0.072 | 0.0994 | 0.145 | 0.193 | 0.25 | 0.342
in ethanol | 0.00307 | 0.00646 | 0.00901 | 0.0119 | 0.0155 | 0.0189 | 0.0234 | 0.031 | 0.043
in ethyl acetate | 0.0775 | 0.0933 | 0.113 | 0.145 | 0.179 | 0.218 | 0.264 | 0.313 | 0.372
in ethyl lactate | 0.0196 | 0.0305 | 0.0458 | 0.0578 | 0.0738 | 0.0875 | 0.109 | 0.148 | 0.213
in isobutyl acetate | 0.0332 | 0.045 | 0.0655 | 0.0872 | 0.112 | 0.145 | 0.181 | 0.225 | 0.281
in methanol | 0.00207 | 0.00338 | 0.00473 | 0.00666 | 0.00924 | 0.0115 | 0.0158 | 0.0212 | 0.0309
in methyl acetate | 0.0544 | 0.0685 | 0.0905 | 0.112 | 0.145 | 0.193 | 0.24 | 0.29 | 0.347
in n-butyl acetate | 0.0821 | 0.11 | 0.142 | 0.172 | 0.213 | 0.254 | 0.293 | 0.347 | 0.432
in n-propyl acetate | 0.0586 | 0.0753 | 0.0981 | 0.133 | 0.165 | 0.202 | 0.255 | 0.313 | 0.383
